Results reported in the NIST ThermoML archive (doi:10.1016/j.jct.2004.02.001).
Values joined by “and” are separate entries in the source; they are usually repeats but may differ in a detail not shown here. Equal values may be shown once.

Assays:
[1] = for vapor or sublimation pressure: Calculated from knudsen effusion weight loss; for Triple point temperature: DTA
[2] = Molar enthalpy of transition or fusion; details: DSC

CCCCCCCc1ccc(C(=O)O)cc1 [4-heptylbenzoic acid]
[1], Crystal 1
Details | vapor or sublimation pressure
353.16 K | 0.000119 kPa and 0.000121 kPa and 0.000116 kPa
355.19 K | 0.000149 kPa and 0.000151 kPa
357.19 K | 0.000191 kPa and 0.000193 kPa and 0.000189 kPa
359.18 K | 0.000239 kPa and 0.00024 kPa
361.17 K | 0.000312 kPa and 0.0003 kPa and 0.000304 kPa
363.2 K | 0.000392 kPa and 0.000381 kPa
365.18 K | 0.000484 kPa and 0.000482 kPa and 0.000475 kPa
367.14 K | 0.000608 kPa and 0.000602 kPa and 0.000595 kPa
369.2 K | 0.000771 kPa and 0.000764 kPa and 0.000751 kPa

Details | Molar enthalpy of transition or fusion, Crystal 1 [kcal/mol] | Molar enthalpy of transition or fusion, Crystal 2 [kcal/mol] | Molar enthalpy of transition or fusion, Nematic liquid crystal [kcal/mol] | Triple point temperature, Crystal 1 [K] | Triple point temperature, Crystal 2 [K] | Triple point temperature, Nematic liquid crystal [K]
[1] | – | – | – | 374.52 | 320.17 | 393.11
[2] | 3.42 | 1.77 | 0.239 | – | – | –

CCCCCc1ccc(C(=O)O)cc1 [4-pentylbenzoic acid]
[1], Crystal 1
Details | vapor or sublimation pressure
341.16 K | 0.000174 kPa and 0.000177 kPa and 0.000169 kPa
343.16 K | 0.000223 kPa and 0.000214 kPa
345.16 K | 0.000279 kPa and 0.000271 kPa
347.18 K | 0.000358 kPa and 0.000355 kPa and 0.000345 kPa
349.18 K | 0.000454 kPa and 0.000455 kPa and 0.000439 kPa
351.17 K | 0.000553 kPa and 0.000544 kPa and 0.000533 kPa
353.16 K | 0.000694 kPa and 0.000692 kPa and 0.000682 kPa
355.16 K | 0.000852 kPa and 0.000854 kPa and 0.000828 kPa
357.16 K | 0.00109 kPa and 0.00106 kPa

Details | Molar enthalpy of transition or fusion, [2] [kcal/mol] | Triple point temperature, [1] [K]
Crystal 1 | 2.72 | 362.45
Nematic liquid crystal | 0.263 | 399.3

CCCCCCc1ccc(C(=O)O)cc1 [4-hexylbenzoic acid]
[1], Crystal 1
Details | vapor or sublimation pressure
347.08 K | 0.00015 kPa and 0.000151 kPa and 0.000146 kPa
349.19 K | 0.000193 kPa and 0.000191 kPa and 0.000189 kPa
351.19 K | 0.000245 kPa and 0.000243 kPa and 0.000232 kPa
353.14 K | 0.000298 kPa and 0.000293 kPa and 0.000304 kPa
355.25 K | 0.000391 kPa and 0.000388 kPa and 0.000381 kPa
357.16 K | 0.000485 kPa and 0.00047 kPa and 0.000468 kPa
359.27 K | 0.000619 kPa and 0.000614 kPa and 0.000605 kPa
361.35 K | 0.000768 kPa and 0.000764 kPa and 0.000736 kPa
363.14 K | 0.000951 kPa and 0.000946 kPa and 0.000919 kPa

Details | Molar enthalpy of transition or fusion, Crystal 1 [kcal/mol] | Molar enthalpy of transition or fusion, Crystal 3 [kcal/mol] | Triple point temperature, Crystal 1 [K] | Triple point temperature, Nematic liquid crystal [K]
[1] | – | – | 370.64 | 385.87
[2] | 0.227 | 3.08 | – | –

CCc1ccc(C(=O)O)cc1 [4-ethylbenzoic acid]
[1], Crystal
Details | vapor or sublimation pressure
321.17 K | 0.000214 kPa and 0.000211 kPa
323.16 K | 0.000272 kPa and 0.000265 kPa and 0.000263 kPa
325.22 K | 0.000347 kPa and 0.000335 kPa
327.17 K | 0.000419 kPa and 0.000418 kPa and 0.000436 kPa
329.34 K | 0.00055 kPa and 0.000542 kPa and 0.000527 kPa
331.2 K | 0.000666 kPa and 0.000651 kPa and 0.000637 kPa
333.14 K | 0.000826 kPa and 0.000818 kPa and 0.000803 kPa
335.25 K | 0.00103 kPa and 0.00101 kPa and 0.001 kPa

Crystal
Details | Molar enthalpy of transition or fusion [kcal/mol] | Triple point temperature [K]
[1] | – | 385.2
[2] | 3.06 | –

CCCCCCCCc1ccc(C(=O)O)cc1 [4-octylbenzoic acid]
[1]
Details | vapor or sublimation pressure
356.67 K, Crystal 2 | 8.5e-05 kPa and 8.6e-05 kPa
358.22 K, Crystal 2 | 0.000102 kPa and 0.000103 kPa
359.66 K, Crystal 2 | 0.000127 kPa and 0.000126 kPa
361.16 K, Crystal 2 | 0.00015 kPa and 0.000148 kPa
362.71 K, Crystal 2 | 0.000182 kPa and 0.000181 kPa
364.25 K, Crystal 2 | 0.000213 kPa and 0.000211 kPa
365.68 K, Crystal 2 | 0.000255 kPa and 0.000253 kPa
367.46 K, Crystal 1 | 0.000302 kPa and 0.000305 kPa
368.85 K, Crystal 1 | 0.000356 kPa and 0.000355 kPa
370.35 K, Crystal 1 | 0.000426 kPa and 0.000424 kPa
371.86 K, Crystal 1 | 0.000504 kPa and 0.000502 kPa

Details | Molar enthalpy of transition or fusion, Crystal 1 [kcal/mol] | Molar enthalpy of transition or fusion, Crystal 2 [kcal/mol] | Molar enthalpy of transition or fusion, Crystal 3 [kcal/mol] | Molar enthalpy of transition or fusion, Nematic liquid crystal [kcal/mol] | Triple point temperature, Crystal 1 [K] | Triple point temperature, Crystal 2 [K] | Triple point temperature, Crystal 3 [K] | Triple point temperature, Nematic liquid crystal [K]
[1] | – | – | – | – | 373.25 | 366.56 | 305.46 | 385.54
[2] | 3.42 | 0.112 | 1.29 | 0.287 | – | – | – | –

CCCc1ccc(C(=O)O)cc1 [4-propylbenzoic acid]
[1], Crystal 1
Details | vapor or sublimation pressure
331.16 K | 0.000166 kPa and 0.000162 kPa and 0.000159 kPa
333.14 K | 0.000207 kPa
335.17 K | 0.000259 kPa and 0.000252 kPa and 0.000246 kPa
337.17 K | 0.000321 kPa and 0.000318 kPa
339.15 K | 0.000397 kPa
341.16 K | 0.000501 kPa and 0.000485 kPa
343.16 K | 0.00062 kPa
345.14 K | 0.000772 kPa and 0.000774 kPa and 0.000768 kPa
347.16 K | 0.000968 kPa and 0.000944 kPa

Details | Molar enthalpy of transition or fusion, [2] [kcal/mol] | Triple point temperature, [1] [K]
Crystal 1 | 4.7 | 415.41
Crystal 2 | 0.81 | 298.48

CCCCc1ccc(C(=O)O)cc1 [4-butylbenzoic acid]
[1], Crystal 1
Details | vapor or sublimation pressure
333.16 K | 0.000164 kPa and 0.000162 kPa
335.16 K | 0.000211 kPa and 0.000212 kPa
337.14 K | 0.000263 kPa and 0.000262 kPa and 0.000261 kPa
339.17 K | 0.000323 kPa and 0.000328 kPa and 0.00033 kPa
341.17 K | 0.000422 kPa and 0.00042 kPa and 0.000408 kPa
343.16 K | 0.00052 kPa and 0.000522 kPa
345.15 K | 0.000645 kPa and 0.000629 kPa and 0.000622 kPa
347.13 K | 0.000804 kPa and 0.000786 kPa and 0.00078 kPa
349.15 K | 0.000994 kPa and 0.000968 kPa and 0.000978 kPa

Details | Molar enthalpy of transition or fusion, Crystal 1 [kcal/mol] | Molar enthalpy of transition or fusion, Crystal 2 [kcal/mol] | Molar enthalpy of transition or fusion, Nematic liquid crystal [kcal/mol] | Triple point temperature, Crystal 1 [K] | Triple point temperature, Crystal 2 [K] | Triple point temperature, Nematic liquid crystal [K]
[1] | – | – | – | 374.6 | 309.64 | 387.98
[2] | 2.77 | 1.12 | 0.182 | – | – | –

Cc1ccc(C(=O)O)cc1 [4-methylbenzoic acid]
[1], Crystal
Details | vapor or sublimation pressure
319.68 K | 0.000137 kPa and 0.000133 kPa
322.14 K | 0.000182 kPa and 0.000179 kPa and 0.000174 kPa
324.62 K | 0.000235 kPa and 0.00023 kPa
327.08 K | 0.000309 kPa and 0.000307 kPa and 0.000312 kPa
329.73 K | 0.000421 kPa and 0.000415 kPa and 0.000408 kPa
332.11 K | 0.000536 kPa and 0.000529 kPa and 0.000515 kPa
334.63 K | 0.00071 kPa and 0.000689 kPa and 0.000685 kPa
337.33 K | 0.00092 kPa and 0.000891 kPa

Crystal
Details | Molar enthalpy of transition or fusion [kcal/mol] | Triple point temperature [K]
[1] | – | 452.34
[2] | 5.37 | –
